Measurements: ChEMBL document CHEMBL1147209, “Relationship between quantum-chemical descriptors of proton dissociation and experimental acidity constants of various hydroxylated coumarins. Identification of the biologically active species for xanthine oxidase inhibition” (Eur J Med Chem, 2007)
pIC50: −log10 of the molar value.

The compounds below were run against Xanthine dehydrogenase/oxidase (Homo sapiens, UniProt P47989) (assay: Inhibition of xanthine oxidase).
Chain of Xanthine dehydrogenase/oxidase (P47989 whole entry): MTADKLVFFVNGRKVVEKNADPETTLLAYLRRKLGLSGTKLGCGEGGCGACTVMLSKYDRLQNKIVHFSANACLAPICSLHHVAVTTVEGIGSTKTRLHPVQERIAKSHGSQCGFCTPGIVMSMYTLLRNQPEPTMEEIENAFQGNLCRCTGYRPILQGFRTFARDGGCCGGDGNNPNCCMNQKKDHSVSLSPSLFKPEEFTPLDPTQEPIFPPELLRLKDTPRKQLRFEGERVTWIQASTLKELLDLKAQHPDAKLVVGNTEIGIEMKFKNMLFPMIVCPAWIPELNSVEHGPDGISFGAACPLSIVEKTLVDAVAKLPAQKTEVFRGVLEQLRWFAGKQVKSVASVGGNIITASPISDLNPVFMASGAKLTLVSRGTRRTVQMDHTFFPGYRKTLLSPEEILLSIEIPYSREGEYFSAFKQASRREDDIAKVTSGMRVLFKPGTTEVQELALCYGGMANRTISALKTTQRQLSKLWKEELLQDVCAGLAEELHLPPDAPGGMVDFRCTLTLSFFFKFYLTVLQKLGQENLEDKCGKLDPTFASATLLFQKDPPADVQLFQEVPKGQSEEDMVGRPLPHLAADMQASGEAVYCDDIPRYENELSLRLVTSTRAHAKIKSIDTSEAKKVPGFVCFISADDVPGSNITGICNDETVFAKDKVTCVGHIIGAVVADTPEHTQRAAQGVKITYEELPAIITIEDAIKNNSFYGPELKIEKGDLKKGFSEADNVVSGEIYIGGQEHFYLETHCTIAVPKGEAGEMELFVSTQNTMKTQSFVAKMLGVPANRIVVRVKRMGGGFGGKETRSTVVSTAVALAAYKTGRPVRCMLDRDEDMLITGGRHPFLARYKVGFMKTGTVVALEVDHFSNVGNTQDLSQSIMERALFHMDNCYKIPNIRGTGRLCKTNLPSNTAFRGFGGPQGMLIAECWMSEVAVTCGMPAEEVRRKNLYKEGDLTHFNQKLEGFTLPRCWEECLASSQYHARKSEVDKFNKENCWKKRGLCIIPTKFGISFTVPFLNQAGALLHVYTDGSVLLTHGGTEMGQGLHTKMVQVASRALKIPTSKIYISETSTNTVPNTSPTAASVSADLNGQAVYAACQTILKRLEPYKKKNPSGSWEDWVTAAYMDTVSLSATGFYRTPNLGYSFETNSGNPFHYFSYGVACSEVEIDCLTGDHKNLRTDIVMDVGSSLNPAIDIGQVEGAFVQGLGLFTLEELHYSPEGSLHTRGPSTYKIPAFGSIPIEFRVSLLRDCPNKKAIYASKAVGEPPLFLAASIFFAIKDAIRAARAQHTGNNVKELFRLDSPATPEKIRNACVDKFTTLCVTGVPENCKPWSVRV
With `O=c1ccc2ccc(O)cc2o1` [UMBELLIFERONE] the pIC50 was 3.63. With `O=c1ccc2cc(O)c(O)cc2o1` [ESCULETIN] the pIC50 was 5.09. Compound `O=c1ccc2ccc(O)c(O)c2o1` [DAPHNETIN] has a pIC50 of 3.41. Compound `O=c1cc(O)c2ccccc2o1` [4-HYDROXYCOUMARINS] has a pIC50 of 3.71. With `COc1cc2oc(=O)ccc2cc1O` [ISOSCOPOLETIN] the pIC50 was 3.86. `COc1cc2ccc(=O)oc2cc1O` [SCOPOLETIN] was tested, and the Activity was “Not Active”. For `O=c1oc2ccccc2cc1O` [3-HYDROXYCOUMARIN], the pIC50 was 3.88. `Cc1cc(=O)oc2cc(O)c(O)cc12` [4-METHYLESCULETIN] was tested, and the pIC50 was 3.61.
